Experimental data as given in ChEMBL document CHEMBL4024706 (Eur J Med Chem, 2017).

How the values were obtained:
[1] = biological target: Phosphatidylinositol 3-kinase catalytic subunit type 3 (Homo sapiens) (UniProt Q8NEB9); test: Inhibition of wild-type human partial length VPS34 (S282 to H879 residues) expressed in mammalian expression system assessed as residual activity at 1 uM by Kinomescan method relative to control
[2] = biological target: Homeodomain-interacting protein kinase 1 (Homo sapiens) (UniProt Q86Z02); test: Inhibition of wild-type human partial length HIPK1 (M146 to I555 residues) expressed in mammalian expression system assessed as residual activity at 1 uM by Kinomescan method relative to control
Homeodomain-interacting protein kinase 1 (Homo sapiens), sequence (Q86Z02 whole entry, looked up, the tested form may be a part): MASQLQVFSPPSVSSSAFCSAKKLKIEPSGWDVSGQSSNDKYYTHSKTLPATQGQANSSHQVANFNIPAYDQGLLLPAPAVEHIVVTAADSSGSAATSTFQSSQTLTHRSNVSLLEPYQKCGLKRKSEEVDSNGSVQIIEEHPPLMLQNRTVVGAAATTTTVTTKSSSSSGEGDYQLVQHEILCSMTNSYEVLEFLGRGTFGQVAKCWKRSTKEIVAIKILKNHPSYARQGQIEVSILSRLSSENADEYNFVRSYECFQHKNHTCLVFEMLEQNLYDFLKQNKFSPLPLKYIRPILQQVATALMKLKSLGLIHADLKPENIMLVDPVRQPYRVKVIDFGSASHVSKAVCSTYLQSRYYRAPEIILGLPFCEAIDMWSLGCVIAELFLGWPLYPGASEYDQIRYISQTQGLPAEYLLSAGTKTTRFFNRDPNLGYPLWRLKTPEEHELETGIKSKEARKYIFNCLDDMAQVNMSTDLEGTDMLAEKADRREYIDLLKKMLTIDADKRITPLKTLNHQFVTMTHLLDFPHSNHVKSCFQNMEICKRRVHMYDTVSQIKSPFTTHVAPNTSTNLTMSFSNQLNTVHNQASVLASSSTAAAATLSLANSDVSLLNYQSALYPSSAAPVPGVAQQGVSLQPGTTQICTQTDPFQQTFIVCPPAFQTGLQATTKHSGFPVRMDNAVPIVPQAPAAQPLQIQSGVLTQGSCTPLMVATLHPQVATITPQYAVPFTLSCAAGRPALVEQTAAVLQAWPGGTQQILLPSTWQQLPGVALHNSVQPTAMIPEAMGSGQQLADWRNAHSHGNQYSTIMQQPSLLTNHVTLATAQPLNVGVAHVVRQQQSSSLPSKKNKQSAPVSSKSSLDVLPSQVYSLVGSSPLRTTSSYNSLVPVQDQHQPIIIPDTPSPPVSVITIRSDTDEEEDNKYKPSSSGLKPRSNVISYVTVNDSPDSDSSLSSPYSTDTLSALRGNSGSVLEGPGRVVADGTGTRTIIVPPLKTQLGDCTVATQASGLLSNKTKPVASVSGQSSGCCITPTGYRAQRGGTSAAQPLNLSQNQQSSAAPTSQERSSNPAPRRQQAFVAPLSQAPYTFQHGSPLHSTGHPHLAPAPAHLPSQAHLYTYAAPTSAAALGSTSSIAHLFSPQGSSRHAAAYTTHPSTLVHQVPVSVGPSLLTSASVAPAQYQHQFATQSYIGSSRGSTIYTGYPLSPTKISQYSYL

[3] = biological target: Platelet-derived growth factor receptor alpha (Homo sapiens) (UniProt P16234); test: Inhibition of wild-type human partial length PDGFRA (V575 to D1002 residues) expressed in mammalian expression system assessed as residual activity at 1 uM by Kinomescan method relative to control
[4] = test system: ALK tyrosine kinase receptor (Homo sapiens), Q9UM73 [C1156Y]; test: Inhibition of […] human partial length ALK C1156Y mutant (I1088 to E1409 residues) expressed in mammalian expression system assessed as residual activity at 1 uM by Kinomescan method relative to control
[5] = biological target: Serine/threonine-protein kinase 32B (Homo sapiens) (UniProt Q9NY57); test: Inhibition of wild-type human full length YANK2 (M1 to S414 residues) expressed in bacterial expression system assessed as residual activity at 1 uM by Kinomescan method relative to control
[6] = biological target: Inhibitor of nuclear factor kappa-B kinase subunit beta (Homo sapiens) (UniProt O14920); test: Inhibition of wild-type human full length IKK-beta (M1 to S756 residues) expressed in mammalian expression system assessed as residual activity at 1 uM by Kinomescan method relative to control
[7] = biological target: Serine/threonine-protein kinase Chk1 (Homo sapiens) (UniProt O14757); test: Inhibition of wild-type human partial length CHEK1 (M1 to G289 residues) expressed in bacterial expression system assessed as residual activity at 1 uM by Kinomescan method relative to control
Serine/threonine-protein kinase Chk1 (Homo sapiens), sequence (O14757 whole entry, the tested form may be a part): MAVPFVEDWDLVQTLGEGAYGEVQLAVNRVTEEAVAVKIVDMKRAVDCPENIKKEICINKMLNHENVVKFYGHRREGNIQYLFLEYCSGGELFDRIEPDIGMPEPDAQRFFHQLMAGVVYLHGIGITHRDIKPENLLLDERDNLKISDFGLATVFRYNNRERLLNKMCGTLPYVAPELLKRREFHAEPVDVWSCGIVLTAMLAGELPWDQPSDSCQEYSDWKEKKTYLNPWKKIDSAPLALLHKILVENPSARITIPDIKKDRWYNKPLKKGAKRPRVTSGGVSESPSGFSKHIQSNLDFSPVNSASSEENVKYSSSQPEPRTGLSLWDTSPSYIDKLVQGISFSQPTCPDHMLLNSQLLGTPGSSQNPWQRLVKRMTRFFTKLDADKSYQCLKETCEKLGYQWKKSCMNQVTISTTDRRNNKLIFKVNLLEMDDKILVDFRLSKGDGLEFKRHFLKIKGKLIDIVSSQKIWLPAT

[8] = biological target: Serine/threonine-protein kinase 3 (Homo sapiens) (UniProt Q13188); test: Inhibition of wild-type human partial length MST2 (D17 to E318 residues) expressed in bacterial expression system assessed as residual activity at 1 uM by Kinomescan method relative to control
[9] = biological target: Tyrosine-protein kinase ZAP-70 (Homo sapiens) (UniProt P43403); test: Inhibition of wild-type human partial length ZAP70 (D20 to G299 residues) expressed in mammalian expression system assessed as residual activity at 1 uM by Kinomescan method relative to control
Tyrosine-protein kinase ZAP-70 (Homo sapiens), sequence (P43403 whole entry, the tested form may be a part): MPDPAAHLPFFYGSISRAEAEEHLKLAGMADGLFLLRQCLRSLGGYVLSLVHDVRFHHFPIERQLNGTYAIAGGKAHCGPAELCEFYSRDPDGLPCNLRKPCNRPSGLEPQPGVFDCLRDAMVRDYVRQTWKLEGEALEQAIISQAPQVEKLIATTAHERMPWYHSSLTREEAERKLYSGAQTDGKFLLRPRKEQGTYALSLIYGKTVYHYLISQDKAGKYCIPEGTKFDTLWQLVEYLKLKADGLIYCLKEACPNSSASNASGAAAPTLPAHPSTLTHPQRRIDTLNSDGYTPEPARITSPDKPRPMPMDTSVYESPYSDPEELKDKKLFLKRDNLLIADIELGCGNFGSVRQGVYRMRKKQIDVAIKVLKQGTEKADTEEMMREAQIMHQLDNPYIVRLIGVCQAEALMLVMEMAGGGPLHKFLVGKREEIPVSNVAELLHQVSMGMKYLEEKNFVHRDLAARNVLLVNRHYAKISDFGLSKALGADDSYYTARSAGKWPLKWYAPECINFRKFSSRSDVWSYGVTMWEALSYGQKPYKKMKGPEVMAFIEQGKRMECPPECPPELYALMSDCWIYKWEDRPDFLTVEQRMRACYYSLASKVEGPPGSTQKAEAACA

[10] = biological target: 3-phosphoinositide-dependent protein kinase 1 (Homo sapiens) (UniProt O15530); test: Inhibition of wild-type human full length PDPK1 (M1 to Q556 residues) expressed in bacterial expression system assessed as residual activity at 1 uM by Kinomescan method relative to control
[11] = biological target: Tyrosine-protein kinase Lyn (Homo sapiens) (UniProt P07948); test: Inhibition of wild-type human partial length LYN (C219 to Q511 residues) expressed in bacterial expression system assessed as residual activity at 1 uM by Kinomescan method relative to control
[12] = test system: Phosphatidylinositol 4,5-bisphosphate 3-kinase catalytic subunit alpha isoform (Homo sapiens), P42336 [M1043I]; test: Inhibition of human partial length PIK3CA M1043I mutant (R108 to N1068 residues) expressed in mammalian expression system assessed as residual activity at 1 uM by Kinomescan method relative to control
[13] = biological target: Mitogen-activated protein kinase 8 (Homo sapiens) (UniProt P45983); test: Inhibition of wild-type human full length JNK1 (M1 to Q384 residues) expressed in mammalian expression system assessed as residual activity at 1 uM by Kinomescan method relative to control
Mitogen-activated protein kinase 8 (Homo sapiens), sequence (P45983 whole entry, the tested form may be a part): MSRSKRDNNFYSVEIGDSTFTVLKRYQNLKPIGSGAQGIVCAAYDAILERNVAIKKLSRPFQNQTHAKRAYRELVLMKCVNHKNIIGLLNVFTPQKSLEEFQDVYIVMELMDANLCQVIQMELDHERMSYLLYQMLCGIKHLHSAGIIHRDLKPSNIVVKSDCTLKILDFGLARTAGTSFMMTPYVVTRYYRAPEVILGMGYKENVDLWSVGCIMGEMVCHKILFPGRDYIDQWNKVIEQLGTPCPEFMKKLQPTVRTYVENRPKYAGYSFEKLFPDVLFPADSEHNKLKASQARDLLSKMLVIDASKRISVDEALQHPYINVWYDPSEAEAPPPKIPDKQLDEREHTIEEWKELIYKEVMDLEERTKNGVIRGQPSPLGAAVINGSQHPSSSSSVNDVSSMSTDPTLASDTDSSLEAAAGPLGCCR

[14] = biological target: Serine/threonine-protein kinase TAO1 (Homo sapiens) (UniProt Q7L7X3); test: Inhibition of wild-type human partial length TAOK1 (M1 to A320 residues) expressed in mammalian expression system assessed as residual activity at 1 uM by Kinomescan method relative to control
Serine/threonine-protein kinase TAO1 (Homo sapiens), sequence (Q7L7X3 whole entry, the tested form may be a part): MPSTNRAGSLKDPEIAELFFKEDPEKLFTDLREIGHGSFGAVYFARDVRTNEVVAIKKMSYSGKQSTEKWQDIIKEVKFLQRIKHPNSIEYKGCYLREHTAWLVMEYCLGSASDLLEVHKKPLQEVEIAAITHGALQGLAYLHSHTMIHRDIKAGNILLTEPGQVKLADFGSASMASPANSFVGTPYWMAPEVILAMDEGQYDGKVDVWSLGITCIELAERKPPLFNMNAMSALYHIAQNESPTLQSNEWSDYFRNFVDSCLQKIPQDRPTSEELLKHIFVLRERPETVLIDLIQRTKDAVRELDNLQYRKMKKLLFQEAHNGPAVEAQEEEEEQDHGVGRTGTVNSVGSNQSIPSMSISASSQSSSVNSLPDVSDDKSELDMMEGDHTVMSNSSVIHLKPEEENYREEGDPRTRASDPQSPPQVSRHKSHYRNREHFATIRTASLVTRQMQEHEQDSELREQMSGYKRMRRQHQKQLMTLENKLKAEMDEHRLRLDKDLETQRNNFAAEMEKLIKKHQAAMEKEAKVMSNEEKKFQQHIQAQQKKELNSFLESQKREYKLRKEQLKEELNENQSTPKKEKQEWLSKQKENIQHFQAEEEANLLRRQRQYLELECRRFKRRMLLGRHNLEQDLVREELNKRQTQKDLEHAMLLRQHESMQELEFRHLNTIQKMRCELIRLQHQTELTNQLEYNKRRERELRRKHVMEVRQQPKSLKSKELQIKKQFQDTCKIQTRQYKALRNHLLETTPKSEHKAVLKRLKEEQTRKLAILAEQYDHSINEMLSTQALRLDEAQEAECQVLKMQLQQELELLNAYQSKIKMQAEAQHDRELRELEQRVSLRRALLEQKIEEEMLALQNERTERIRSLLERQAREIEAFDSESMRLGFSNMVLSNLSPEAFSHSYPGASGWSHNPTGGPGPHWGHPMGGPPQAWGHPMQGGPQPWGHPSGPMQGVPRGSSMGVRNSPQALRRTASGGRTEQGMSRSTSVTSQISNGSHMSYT

[15] = biological target: Serine/threonine-protein kinase PAK 4 (Homo sapiens) (UniProt O96013); test: Inhibition of wild-type human partial length PAK4 (Q144 to R438 residues) expressed in bacterial expression system assessed as residual activity at 1 uM by Kinomescan method relative to control
Serine/threonine-protein kinase PAK 4 (Homo sapiens), sequence (O96013 whole entry, looked up, the tested form may be a part): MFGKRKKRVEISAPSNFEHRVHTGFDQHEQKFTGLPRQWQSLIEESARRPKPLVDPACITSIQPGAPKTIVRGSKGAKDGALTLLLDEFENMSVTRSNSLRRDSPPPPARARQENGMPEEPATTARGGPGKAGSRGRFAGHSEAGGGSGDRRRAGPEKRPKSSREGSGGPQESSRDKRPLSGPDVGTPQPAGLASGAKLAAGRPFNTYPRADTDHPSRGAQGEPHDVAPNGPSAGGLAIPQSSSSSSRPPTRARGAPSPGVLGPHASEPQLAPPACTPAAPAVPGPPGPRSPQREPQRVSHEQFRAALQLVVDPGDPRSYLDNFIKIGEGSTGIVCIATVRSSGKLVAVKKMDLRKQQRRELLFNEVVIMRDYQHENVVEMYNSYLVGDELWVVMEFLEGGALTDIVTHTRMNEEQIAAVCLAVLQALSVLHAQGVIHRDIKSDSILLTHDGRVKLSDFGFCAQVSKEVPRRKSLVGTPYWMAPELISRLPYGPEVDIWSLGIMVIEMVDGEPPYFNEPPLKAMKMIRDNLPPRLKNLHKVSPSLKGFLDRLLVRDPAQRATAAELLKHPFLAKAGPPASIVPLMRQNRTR

[16] = Elimination half-life in Sprague-Dawley rat at 10 mg/kg, po by LC-MS/MS method; format: ADME, organism-based; details: in vivo, read-out: beta t1/2 (converted)
[17] = test system: Epidermal growth factor receptor (Homo sapiens), P00533 [G719S]; test: Inhibition of human partial length EGFR G719S mutant (R669 to V1011 residues) expressed in bacterial expression system assessed as residual activity at 1 uM by Kinomescan method relative to control
[18] = biological target: Phosphatidylinositol 4,5-bisphosphate 3-kinase catalytic subunit delta isoform (Homo sapiens) (UniProt O00329); test: Inhibition of wild-type human partial length PIK3CD (R108 to Q1044 residues) expressed in mammalian expression system assessed as residual activity at 1 uM by Kinomescan method relative to control
[19] = biological target: Serine/threonine-protein kinase DCLK3 (Homo sapiens) (UniProt Q9C098); test: Inhibition of wild-type human partial length DCAMKL3 (E140 to V628 residues) expressed in bacterial expression system assessed as residual activity at 1 uM by Kinomescan method relative to control
Serine/threonine-protein kinase DCLK3 (Homo sapiens), sequence (Q9C098 whole entry, the tested form may be a part): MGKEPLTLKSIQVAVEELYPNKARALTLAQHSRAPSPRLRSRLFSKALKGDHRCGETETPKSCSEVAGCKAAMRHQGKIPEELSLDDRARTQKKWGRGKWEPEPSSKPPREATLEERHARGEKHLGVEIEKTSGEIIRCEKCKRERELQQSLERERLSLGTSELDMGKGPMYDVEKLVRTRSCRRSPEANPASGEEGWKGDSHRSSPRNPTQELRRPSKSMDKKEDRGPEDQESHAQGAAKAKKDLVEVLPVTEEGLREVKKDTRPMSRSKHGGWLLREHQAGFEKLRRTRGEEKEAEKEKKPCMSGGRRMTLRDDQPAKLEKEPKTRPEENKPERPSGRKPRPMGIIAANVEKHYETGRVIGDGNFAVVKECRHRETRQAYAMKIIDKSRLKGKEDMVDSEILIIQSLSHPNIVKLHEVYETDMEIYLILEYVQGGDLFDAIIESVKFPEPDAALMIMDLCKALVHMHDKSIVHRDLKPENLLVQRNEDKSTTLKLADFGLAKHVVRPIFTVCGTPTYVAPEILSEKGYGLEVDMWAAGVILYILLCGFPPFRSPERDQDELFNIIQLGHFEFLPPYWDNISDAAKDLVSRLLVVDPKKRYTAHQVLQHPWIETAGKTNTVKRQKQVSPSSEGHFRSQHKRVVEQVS

[20] = biological target: Serine/threonine-protein kinase Nek4 (Homo sapiens) (UniProt P51957); test: Inhibition of wild-type human full length NEK4 (M1 to F841 residues) expressed in mammalian expression system assessed as residual activity at 1 uM by Kinomescan method relative to control
[21] = biological target: Beta-adrenergic receptor kinase 1 (Homo sapiens) (UniProt P25098); test: Inhibition of wild-type human full length GRK2 (M1 to L689 residues) expressed in mammalian expression system assessed as residual activity at 1 uM by Kinomescan method relative to control
[22] = biological target: Tyrosine-protein kinase Blk (Homo sapiens) (UniProt P51451); test: Inhibition of wild-type human partial length BLK (G211 to L503 residues) expressed in bacterial expression system assessed as residual activity at 1 uM by Kinomescan method relative to control
[23] = biological target: Serine/threonine-protein kinase B-raf (Homo sapiens) (UniProt P15056); test: Inhibition of wild-type human partial length BRAF (S429 to E741 residues) expressed in mammalian expression system assessed as residual activity at 1 uM by Kinomescan method relative to control
[24] = biological target: MAP kinase-interacting serine/threonine-protein kinase 1 (Homo sapiens) (UniProt Q9BUB5); test: Inhibition of wild-type human full length MKNK1 (M1 to L424 residues) expressed in mammalian expression system assessed as residual activity at 1 uM by Kinomescan method relative to control
[25] = biological target: Aurora kinase C (Homo sapiens) (UniProt Q9UQB9); test: Inhibition of wild-type human full length AURKC (M1 to S275 residues) expressed in bacterial expression system assessed as residual activity at 1 uM by Kinomescan method relative to control

Molecule `C=CC(=O)Nc1cc(Nc2cc(-c3cccc(NC(=O)c4ccc(C(C)(C)C)cc4)c3C)cn(C)c2=O)ccc1C(=O)N1CCOCC1` has an Activity [1] of 90%, an Activity [2] of 100% and an Activity [3] of 100%. The Activity [4] was 94%, the Activity [5] was 100% and the Activity [6] was 100%. It also gave an Activity [7] of 100%, an Activity [8] of 87% and an Activity [9] of 100%. For the same molecule, the Activity [10] was 90%, the Activity [11] was 92% and the Activity [12] was 100%. The Activity [13] was 100%, the Activity [14] was 100% and the Activity [15] was 94%. For the same molecule, the half-life [16] was 1.33 h, the Activity [17] was 100% and the Activity [18] was 100%. For the same molecule, the Activity [19] was 100%, the Activity [20] was 100% and the Activity [21] was 100%. The Activity [22] was 82%, the Activity [23] was 100% and the Activity [24] was 91%. For the same molecule, the Activity [25] was 100%.
